Experimental data from ChEMBL document CHEMBL1147790, “Synthetic analogues of the manzamenones and plakoridines which inhibit DNA polymerase” (Bioorg Med Chem Lett, 2006).

Legend:
[1] = target: T1, DNA polymerase alpha catalytic subunit (Homo sapiens, UniProt P09884); experiment: Inhibition of DNA polymerase alpha
T1 sequence (P09884 whole entry): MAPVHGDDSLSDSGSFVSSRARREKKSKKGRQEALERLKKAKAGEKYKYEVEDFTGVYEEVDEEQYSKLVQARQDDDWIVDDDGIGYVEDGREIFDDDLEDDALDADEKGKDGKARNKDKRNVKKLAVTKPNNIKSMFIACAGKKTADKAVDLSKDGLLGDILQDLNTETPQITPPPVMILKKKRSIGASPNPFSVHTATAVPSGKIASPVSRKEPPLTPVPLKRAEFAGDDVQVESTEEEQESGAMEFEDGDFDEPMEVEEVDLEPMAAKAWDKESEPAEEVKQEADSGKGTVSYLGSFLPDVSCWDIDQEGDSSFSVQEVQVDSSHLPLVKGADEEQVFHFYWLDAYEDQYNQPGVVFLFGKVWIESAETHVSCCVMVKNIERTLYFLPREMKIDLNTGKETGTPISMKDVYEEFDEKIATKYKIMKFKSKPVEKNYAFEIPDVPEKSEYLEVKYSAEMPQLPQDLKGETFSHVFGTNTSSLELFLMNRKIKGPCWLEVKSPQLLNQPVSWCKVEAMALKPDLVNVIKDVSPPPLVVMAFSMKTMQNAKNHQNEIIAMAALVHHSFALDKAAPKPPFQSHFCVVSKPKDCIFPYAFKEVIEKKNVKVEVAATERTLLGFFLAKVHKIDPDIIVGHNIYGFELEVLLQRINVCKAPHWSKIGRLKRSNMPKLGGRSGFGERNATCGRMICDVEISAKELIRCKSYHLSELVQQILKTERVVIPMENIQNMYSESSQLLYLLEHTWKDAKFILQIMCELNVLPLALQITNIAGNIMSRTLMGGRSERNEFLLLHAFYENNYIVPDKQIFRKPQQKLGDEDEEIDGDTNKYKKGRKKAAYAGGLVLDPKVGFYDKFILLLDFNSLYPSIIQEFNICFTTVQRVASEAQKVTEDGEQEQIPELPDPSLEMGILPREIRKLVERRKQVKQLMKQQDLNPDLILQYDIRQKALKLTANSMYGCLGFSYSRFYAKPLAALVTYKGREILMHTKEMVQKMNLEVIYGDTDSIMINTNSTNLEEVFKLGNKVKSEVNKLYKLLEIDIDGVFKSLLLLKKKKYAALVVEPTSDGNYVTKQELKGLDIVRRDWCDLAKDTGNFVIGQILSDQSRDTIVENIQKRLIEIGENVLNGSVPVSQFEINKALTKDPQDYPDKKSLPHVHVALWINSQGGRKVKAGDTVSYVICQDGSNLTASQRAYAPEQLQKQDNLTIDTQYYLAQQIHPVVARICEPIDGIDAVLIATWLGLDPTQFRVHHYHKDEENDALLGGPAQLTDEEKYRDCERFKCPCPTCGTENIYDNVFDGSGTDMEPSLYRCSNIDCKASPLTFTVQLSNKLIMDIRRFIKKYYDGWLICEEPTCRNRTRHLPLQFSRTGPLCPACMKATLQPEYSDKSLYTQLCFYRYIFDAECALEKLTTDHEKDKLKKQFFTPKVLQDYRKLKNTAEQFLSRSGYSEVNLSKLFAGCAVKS

DNA polymerase beta = DNA polymerase beta (Homo sapiens, UniProt P06746); experiment: Inhibition of DNA polymerase beta
[2] = target: DNA nucleotidylexotransferase (Homo sapiens, UniProt P04053); experiment: Inhibition of human TdT
Sequence of DNA nucleotidylexotransferase (P04053 whole entry): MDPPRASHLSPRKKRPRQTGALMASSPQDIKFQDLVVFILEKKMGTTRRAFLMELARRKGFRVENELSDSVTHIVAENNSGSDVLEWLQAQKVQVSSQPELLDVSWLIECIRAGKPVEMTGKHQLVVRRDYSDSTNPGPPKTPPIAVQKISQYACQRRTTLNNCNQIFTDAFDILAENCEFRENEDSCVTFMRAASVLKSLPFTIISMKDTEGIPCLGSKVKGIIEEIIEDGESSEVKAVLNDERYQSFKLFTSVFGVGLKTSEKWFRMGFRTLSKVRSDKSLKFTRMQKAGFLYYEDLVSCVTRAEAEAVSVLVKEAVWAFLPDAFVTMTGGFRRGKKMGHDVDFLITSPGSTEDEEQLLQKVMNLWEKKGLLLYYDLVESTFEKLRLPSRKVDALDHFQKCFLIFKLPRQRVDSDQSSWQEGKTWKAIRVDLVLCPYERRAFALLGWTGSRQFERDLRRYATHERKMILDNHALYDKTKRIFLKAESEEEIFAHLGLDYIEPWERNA

IC50 [1] [µM]	IC50 (DNA polymerase beta) [µM]	IC50 [2] [µM]	SMILES
> 50	> 50	> 50	CCC1=C[C@H](C(=O)O)[C@H]2C(=O)C(C(=O)OC)=C(CC)[C@H]2[C@H]1C(=O)OC
1.9	2.3	8.6	CCCCCCCCCCCCC1=C[C@H](C(=O)O)[C@H]2C(=O)C(C(=O)OC)=C(CCCCCCCCCCCC)[C@H]2[C@H]1C(=O)OC
66	179	–	CCCCCCCCCCCCCCCC[C@]1(O)C=C[C@H](O)[C@H]1C(=O)OC [PLAKEVULIN A]
2.3	1.9	39.7	CCCCCCCCCCCCCCCCC1=C[C@H](C(=O)OCC)[C@H]2C(=O)C(C(=O)OC)=C(CCCCCCCCCCCCCCCC)[C@H]2[C@H]1C(=O)OC
> 12.5	> 12.5	> 12.5	CCCCCCCCCCCCCCCCC1=C[C@H](C(=O)OC)[C@H]2C(=O)[C@]3(C(=O)OC)C[C@]3(CCCCCCCCCCCCCCCC)[C@H]2[C@H]1C(=O)OC

Second part, the molecule before the results:

SMILES	IC50 [1] [µM]	IC50 (DNA polymerase beta) [µM]	IC50 [2] [µM]
CCCCCCCCCCCCC(=O)/C=C1\[C@H](O)[C@@H](C(=O)OC)[C@H](CC)N1CCc1ccccc1	25	22	> 50
CCCCCCCCCCCCCCCCC1=C[C@H](C(=O)NCCc2ccccc2)[C@H]2C(=O)C(C(=O)OC)=C(CCCCCCCCCCCCCCCC)[C@H]2[C@H]1C(=O)OC	6.9	8.7	> 12.5
CCCCCCCCCCCCCCCCC1=C[C@H](C(=O)O)[C@H]2C(=O)C(C(=O)OC)=C(CCCCCCCCCCCCCCCC)[C@H]2[C@H]1C(=O)OC	1.9	3.2	2.5
CCCCCCCCCCCCCCCC[C@]1(O)C=CC(=O)[C@H]1C(=O)OC [UNTENONE A]	4.3	57	–
CCCCCCCCCCCCC(=O)/C=C1\[C@H](O)[C@@H](C(=O)OC)[C@H](c2ccccc2)N1CCc1c[nH]c2ccccc12	21	10	> 50
CCCCCCCCCCCCCCCCC(=O)/C=C/C(=O)CC(=O)OC [E-ENEDIONE]	3.7	8.8	–
CCCCCCCCCCCCC(=O)/C=C1\[C@@H](O)[C@@H](C(=O)OC)[C@H](CC)N1Cc1ccccc1	19.7	27.1	> 50
CCCCCCCCCCCCCCCCC1=C[C@H](C(=O)OCC)[C@H]2C(=O)C(C(=O)OC)=C(CCCCCCCCCCCCCCCC)[C@H]2[C@@H]1C(=O)OC	3.5	2.4	48.4
CCCCCCCCCCCCC(=O)/C=C1\[C@H](O)[C@@H](C(=O)OC)[C@H](CC)N1Cc1ccccc1	19.9	30	> 50
CCCCCCCCCCCCCCCCC1=C[C@H](C(=O)O)[C@H]2C(=O)C(C(=O)OC(C)C)=C(CCCCCCCCCCCCCCCC)[C@H]2[C@H]1C(=O)OC(C)C	3.3	4.4	20
